Source: patent publication US20080280288A1, “Assay Method to Predict Sensitivity of Cancer Cell to Anticancer Drug” (priority 2004, published 2008)
“Also recorded” adds a separate entry of the source.

Tests used:
[1] = tested on: FaDu (head & neck) human cancer cell line; assay: FaDu subcutaneous xenograft in nude mice, relative tumor volume ratio; type: in vivo; details: FaDu s.c. in nude mice; intravenously 10 mg/kg/day for five days
Procedure: (§1) The 25 human cancer cells proliferated in culture flasks or in the subcutaneous tissues of the nude mice were subcutaneously implanted to the bodysides of nude mice, and the mice were classified into a group of 5 control mice and a group of 5 treated mice of the compound 2 so that the average tumor volume of each group was uniform at the time of a tumor volume of 100 mm^3 or larger. The mice of the treated group were intravenously infused at 10 mg/kg/day for five days, and the mice of the control group were not treated or infused with the vehicle. The tumor volume was measured from day 1, subsequently measured over time on Day 5, 8, 12, 15, and a relative tumor volume ratio (T/C %)was estimated.
(§2) The cancer cells proliferated in culture flasks or in the subcutaneous tissues of the nude mice were subcutaneously implanted to the bodysides of nude mice, and the mice were classified into a group of 5 control mice and a group of 5 treated mice of the compounds so that the average tumor volume of each group was uniform at the time of a tumor volume of 100 mm^3 or larger. The mice of the treated group were intravenously infused at 10 mg/kg/day for five days, and the mice of the control group were not treated or infused with the vehicle. The tumor volume was measured from Day 1, and subsequently measured over time on Day 5, 8, 12, 15, and the relative tumor volume ratio was estimated. However, the experiment was basically discontinued at Day 15 in evaluation of the compound 1. In Table 2, the T/C % of the compounds 1, 2, 4 and the compound 2 in Example 2 to each cancer cell are shown.

[2] = tested on: PC-3 (prostate) human cancer cell line; assay: PC-3 subcutaneous xenograft in nude mice, relative tumor volume ratio; type: in vivo; details: PC-3 s.c. in nude mice; intravenously 10 mg/kg/day for five days
Procedure: as §1, §2

[3] = tested on: SW620 (colorectal) human cancer cell line; assay: SW620 subcutaneous xenograft in nude mice, relative tumor volume ratio; type: in vivo; details: SW620 s.c. in nude mice; intravenously 10 mg/kg/day for five days
Procedure: as §1
(§3) The cancer cells proliferated in culture flasks or in the subcutaneous tissues of the nude mice were subcutaneously implanted to the bodysides of nude mice, and the mice were classified into a group of 5 control mice and a group of 5 treated mice of the compounds so that the average tumor volume of each group was uniform at the time of a tumor volume of 100 mm^3 or larger. The mice of the treated group were intravenously infused at 10 mg/kg/day for five days, and the mice of the control group were not treated or infused with the vehicle. The tumor volume was measured from Day 1, and subsequently measured over time on Day 5, 8, 12, 15, and the relative tumor volume ratio was estimated. […]

[4] = tested on: LC-6-JCK (NSCLC) human cancer cell line; assay: LC-6-JCK subcutaneous xenograft in nude mice, relative tumor volume ratio; type: in vivo; details: LC-6-JCK s.c. in nude mice; intravenously 10 mg/kg/day for five days
Procedure: as §1, §3

[5] = tested on: DU145 (prostate) human cancer cell line; assay: DU145 subcutaneous xenograft in nude mice, relative tumor volume ratio; type: in vivo; details: DU145 s.c. in nude mice; intravenously 10 mg/kg/day for five days
Procedure: as §1, §2

[6] = tested on: HT-29 (colorectal) human cancer cell line; assay: HT-29 subcutaneous xenograft in nude mice, relative tumor volume ratio; type: in vivo; details: HT-29 s.c. in nude mice; intravenously 10 mg/kg/day for five days
Procedure: as §1, §2

[7] = tested on: WiDr (colorectal) human cancer cell line; assay: WiDr subcutaneous xenograft in nude mice, relative tumor volume ratio; type: in vivo; details: WiDr s.c. in nude mice; intravenously 10 mg/kg/day for five days
Procedure: as §1, §2

[8] = tested on: BSY-1 (breast) human cancer cell line; assay: BSY-1 subcutaneous xenograft in nude mice, relative tumor volume ratio; type: in vivo; details: for Tumor volume ratio (T/C %): BSY-1 s.c. in nude mice, intravenously 10 mg/kg/day for five days
Procedure: as §1, §2

[9] = tested on: human colon cancer cell line (WiDr); details: reported in WO 03/099813 and related filings; cited from earlier work
[10] = tested on: OVCAR3 (ovarian) human cancer cell line; assay: OVCAR3 subcutaneous xenograft in nude mice, relative tumor volume ratio; type: in vivo; details: OVCAR3 s.c. in nude mice; intravenously 10 mg/kg/day for five days
Procedure: as §1, §3

[11] = tested on: NCI-H522 (SCLC) human cancer cell line; assay: NCI-H522 subcutaneous xenograft in nude mice, relative tumor volume ratio; type: in vivo; details: NCI-H522 s.c. in nude mice; intravenously 10 mg/kg/day for five days
Procedure: as §1, §3

[12] = tested on: NCI-H526 (SCLC) human cancer cell line; assay: NCI-H526 subcutaneous xenograft in nude mice, relative tumor volume ratio; type: in vivo
Procedure: as §1

[13] = tested on: SK-OV-3 (ovarian) human cancer cell line; assay: SK-OV-3 subcutaneous xenograft in nude mice, relative tumor volume ratio; type: in vivo; details: SK-OV-3 s.c. in nude mice; intravenously 10 mg/kg/day for five days
Procedure: as §1

[14] = tested on: HBC4 (breast) human cancer cell line; assay: HBC4 subcutaneous xenograft in nude mice, relative tumor volume ratio; type: in vivo; details: HBC4 s.c. in nude mice; intravenously 10 mg/kg/day for five days
Procedure: as §1

[15] = tested on: DLD-1 (colorectal) human cancer cell line; assay: DLD-1 subcutaneous xenograft in nude mice, relative tumor volume ratio; type: in vivo; details: DLD-1 s.c. in nude mice; intravenously 10 mg/kg/day for five days
Procedure: as §1, §3

[16] = tested on: MDA-MB435 (breast) human cancer cell line; assay: MDA-MB435 subcutaneous xenograft in nude mice, relative tumor volume ratio; type: in vivo; details: MDA-MB435 s.c. in nude mice; intravenously 10 mg/kg/day for five days
Procedure: as §1, §3

[17] = tested on: KM12 (colorectal) human cancer cell line; assay: KM12 subcutaneous xenograft in nude mice, relative tumor volume ratio; type: in vivo; details: KM12 s.c. in nude mice; intravenously 10 mg/kg/day for five days
Procedure: as §1

[18] = tested on: NCI-H69 (SCLC) human cancer cell line; assay: NCI-H69 subcutaneous xenograft in nude mice, relative tumor volume ratio; type: in vivo; details: NCI-H69 s.c. in nude mice; intravenously 10 mg/kg/day for five days
Procedure: as §1

[19] = tested on: Lu99 (NSCLC) human cancer cell line; assay: Lu99 subcutaneous xenograft in nude mice, relative tumor volume ratio; type: in vivo; details: Lu99 s.c. in nude mice; intravenously 10 mg/kg/day for five days
Procedure: as §1

[20] = tested on: MDA-MB468 (breast) human cancer cell line; assay: MDA-MB468 subcutaneous xenograft in nude mice, relative tumor volume ratio; type: in vivo; details: MDA-MB468 s.c. in nude mice; intravenously 10 mg/kg/day for five days
Procedure: as §1

[21] = tested on: NCI-H596 (NSCLC) human cancer cell line; assay: NCI-H596 subcutaneous xenograft in nude mice, relative tumor volume ratio; type: in vivo; details: NCI-H596 s.c. in nude mice; intravenously 10 mg/kg/day for five days
Procedure: as §1, §3

[22] = tested on: NCI-H510 (SCLC) human cancer cell line; assay: NCI-H510 subcutaneous xenograft in nude mice, relative tumor volume ratio; type: in vivo; details: NCI-H510 s.c. in nude mice; intravenously 10 mg/kg/day for five days
Procedure: as §1

[23] = tested on: Calu-1 (NSCLC) human cancer cell line; assay: Calu-1 subcutaneous xenograft in nude mice, relative tumor volume ratio; type: in vivo; details: Calu-1 s.c. in nude mice; intravenously 10 mg/kg/day for five days
Procedure: as §1

[24] = tested on: KPL-4 (breast) human cancer cell line; assay: KPL-4 subcutaneous xenograft in nude mice, relative tumor volume ratio; type: in vivo; details: KPL-4 s.c. in nude mice; intravenously 10 mg/kg/day for five days
Procedure: as §1

[25] = tested on: NCI-H460 (NSCLC) human cancer cell line; assay: NCI-H460 subcutaneous xenograft in nude mice, relative tumor volume ratio; type: in vivo; details: for Tumor volume ratio (T/C %): NCI-H460 s.c. in nude mice, intravenously 10 mg/kg/day for five days
Procedure: as §1, §2

[26] = tested on: NCI-H146 (SCLC) human cancer cell line; assay: NCI-H146 subcutaneous xenograft in nude mice, relative tumor volume ratio; type: in vivo
Procedure: as §1

[27] = tested on: human breast cancer cell line (BSY-1); details: reported in WO 02/060890, WO 03/099813, WO 04/011661; cited from earlier work

SMILES | Tumor volume ratio (T/C %) [1] | Tumor volume ratio (T/C %) [2] | Tumor volume ratio (T/C %) [3] | Tumor volume ratio (T/C %) [4] | Tumor volume ratio (T/C %) [5] | Tumor volume ratio (T/C %) [6] | Tumor volume ratio (T/C %) [7] | Tumor volume ratio (T/C %) [8] | Antitumor activity to WiDr (in words) [9] | Tumor volume ratio (T/C %) [10] | Tumor volume ratio (T/C %) [11] | Tumor volume ratio (T/C %) [15] | Tumor volume ratio (T/C %) [16] | Tumor volume ratio (T/C %) [21] | Tumor volume ratio (T/C %) [25] | further results
CCC(O)C(C)C1OC1CC(C)(O)/C=C/C=C(\C)C1OC(=O)CC(O)CCC(C)(O)C(OC(=O)N2CCN(C(C)C)CC2)/C=C/C1C (stereo not drawn) [Compound 3, (8E,12E,14E)-3,6,16,21-tetrahydroxy-7-((4-isopropylpiperazin-1-yl)carbonyl)oxy-6,10,12,16,20-pentamethyl-18,19-epoxytricosane-8,12,14-trien-11-olide] | 1% | 4% | 19% | 0% | 34% | 26% | 4% | 2% | antitumor activity |  |  |  |  |  |  | 
CCC(O)C(C)C1OC1CC(C)(O)/C=C/C=C(\C)C1OC(=O)CC(O)CCC(C)(O)C(OC(=O)N2CCN(C3CCCCCC3)CC2)/C=C/C1C (stereo not drawn) [Compound 2, (8E,12E,14E)-7-((4-cycloheptylpiperazin-1-yl)carbonyl)oxy-3,6,16,21-tetrahydroxy-6,10,12,16,20-pentamethyl-18,19-epoxytricosane-8,12,14-trien-11-olide] | 3% | 2% | 28% | 0% | 28% | 28% | 4% | 0% |  | 0% | 42% | 47% | 28% | 18% | 33% | Sensitivity of the cancer cell line to the compound (in words) ([12]; H526 xenograft in nude mice): high sensitivity without remission; Tumor volume ratio (T/C %) ([12]; NCI-H526 s.c. in nude mice, intravenously 10 mg/kg/day for five days): 1%; Tumor volume ratio (T/C %) [13]: 27%; Tumor volume ratio (T/C %) [14]: 5%; Tumor volume ratio (T/C %) [17]: 34%; Tumor volume ratio (T/C %) [18]: 1%; Tumor volume ratio (T/C %) [19]: 8%; Tumor volume ratio (T/C %) [20]: 0%; Tumor volume ratio (T/C %) [22]: 10%; Sensitivity of the cancer cell line to the compound (in words) ([8]; BSY-1 xenograft in nude mice): high sensitivity until remission; Tumor volume ratio (T/C %) [23]: 55%; Tumor volume ratio (T/C %) [24]: 23%; Sensitivity of the cancer cell line to the compound (in words) ([25]; H460 xenograft in nude mice): low sensitivity; Tumor volume ratio (T/C %) ([26]; NCI-H146 s.c. in nude mice, intravenously 10 mg/kg/day for five days): 1%; Course of the tumor (in words) ([26]; NCI-H146 xenograft in nude mice, tumor not eliminated): consecutive reduction of the tumor for a long term
CCC(O)C(C)C1OC1CC(C)(O)/C=C/C=C(\C)C1OC(=O)CC(O)CCC(C)(O)C(OC(=O)N2CCN(C)CC2)/C=C/C1C (stereo not drawn) [Compound 4, (8E,12E,14E)-3,6,16,21-tetrahydroxy-6,10,12,16,20-pentamethyl-7-((4-methylpiperazin-1-yl)-carbonyl)oxy-18,19-epoxytricosane-8,12,14-trien-11-olide] | 5% | 3% |  |  | 26% | 46% | 7% |  | antitumor activity |  |  |  |  |  |  | 
CCC(O)C(C)C1OC1CC(C)/C=C/C=C(\C)C1OC(=O)CC(O)CCC(C)(O)C(OC(C)=O)/C=C/C1C (stereo not drawn) [Compound 1, (8E,12E,14E)-7-acetoxy-3,6,21-trihydroxy-6,10,12,16,20-pentamethyl-18,19-epoxytricosane-8,12,14-trien-11-olide] | 33% | 20% |  |  | 26% | 58% | 29% | 0% |  | 23% | 64% | 59% | 50% | 76% | 53% | Antitumor activity to BSY-1 (in words) [27]: high sensitivity; also recorded: high antitumor activity
